How the values were obtained:
PtK2 rat kidney cells = assay: Live cell labeling and confocal imaging of trans-cyclooctene taxol with tetrazine probes; type: cell-based, rat kangaroo; conditions: for staining of intracellular structures by confocal microscopy: 1 μM trans-cyclooctene taxol 1 hour 37° C., wash, then 1 μM tetrazine probe 20 minutes room temperature
Procedure: For live cell studies, PtK2 […] cells were incubated in cell media containing 1 μM trans-cyclooctene taxol for 1 hour at 37° C. After washing with media three times, the cells were exposed to media containing 1 μM tetrazine-BODIPY FL for 20 minutes at room temperature. The cells were then washed and imaged on a confocal microscope. […] Taxol® is known to bind the microtubular networks of cells and there have been several reports of fluorescent taxol derivatives that can be used to image microtubular networks (Evangelio et al., 1998, Cell Motil Cytoskeleton, 39, 73-90; Guy et al., 1996, Chem Biol, 3, 1021-31; Souto et al., 1995, Angew. Chem. Int. Ed., 34, 2710-2712). In addition to tubular structures, the perinuclear region was stained. This staining is due to nonspecific uptake of the taxol analog by intracellular membranes such as the endoplasmic reticulum and Golgi.

EGFR on A549 cells = assay: Pretargeted live cell labeling with trans-cyclooctene cetuximab and tetrazine-VT680, confocal microscopy; type: cell-based, human
Procedure: The human lung adenocarcinoma epithelial cell line A549 was selected for all experiments due to its mid-level over-expression of EGFR. The cell line was maintained in a standard ATCC formulated F-12K media supplemented with 10% fetal bovine serum and 5% penicillin/streptomycin.
Cells were grown on break away glass chamber slides and washed six times after administering either imaging agent. A multichannel upright laser-scanning confocal microscope (FV1000; Olympus) was used to image live cells with a 60× water immersion objective lens. Image collection and fluorophore excitations with lasers at 488 nm (EGFP), 543 nm (AF555), and 633 nm (VT680) were done serially to avoid cross talk between channels. Data were acquired with Fluoview software (version 4.3; Olympus) and image stacks were processed and analyzed with ImageJ software (version 1.41, Bethesda Md.).
Direct labeling of the antibodies with AF555 was monitored in the red channel.

[1] = tested on: trans-cyclooctene bound to antibody; assay: Kinetic measurements of tetrazine cycloaddition to surface-absorbed trans-cyclooctene modified antibody; type: physicochemical; conditions: PBS at 37° C.; 375, 750 and 1000 nM tetrazine; slope of pseudo first order rate constants versus concentration
Procedure: trans-cyclooctene modified antibody was physically absorbed onto polystyrene by immersing the surfaces in a 0.1 mg/mL solution of antibody in PBS for 3 hours. After numerous washes with PBS, the surface was exposed to 750 nM tetrazine VT680 in PBS at 37° C. After 5 minutes, the tetrazine solution was removed and the surface washed 3 times with PBS. The fluorescence due to the VT680 dye was measured on a fluorescence plate reader (Tecan Safire 2) and corrected for background fluorescence. The surface was again exposed to the tetrazine solution and the entire process repeated at 10, 15, 30, and 60 minutes. The fluorescence measurements were plotted versus time, fitted to a first order exponential growth curve and the pseudo first order rate constant determined The entire experiment was repeated using two different concentrations of tetrazine (375 nM and 1000 nM) and the pseudo first order rate constants from all three experiments were plotted versus concentration, fitted to a straight line; the slope of the line was 6000±200 M−1sec−1 and was reported at the second order rate constant for the reaction between tetrazine VT680 and trans-cyclooctene bound to antibody.

[2] = tested on: Her2/neu growth factor receptors on SKBR-3 human mammary carcinoma cells; assay: Live cell labeling with norbornene-modified trastuzumab and tetrazine-VT680, fluorescence microscopy; type: cell-based
From the text: Norbornene carboxylic acid ((1S,2S,4S)-bicyclo[2.2.1]hept-5-en-2-yl acetic acid) was stirred for three hours with 1.1 equivalents of disuccinimidyl carbonate in acetontrile using 1 equivalent of pyridine as base. After reaction, solvent and base were removed by rotary evaporation and the crude norbornene succinimidyl ester with N-hydroxysuccinimide side product was recovered. Commercially purchased humanized anti-HER2/neu antibody trastuzumab (Genentech, San Francisco, Calif.) in 0.1M sodium bicarbonate buffer (pH 8.2) was incubated for three hours at room temperature with a 5 molar excess of 5-(and-6)-carboxytetramethylrhodamine, succinimidyl ester (Invitrogen) and a 30 molar excess of crude norbornene succinimidyl ester. The antibody was then isolated and washed by centrifuge purification and stored in PBS buffer. Control antibody was modified in an identical manner but excluding the norbornene NHS.
SKBR-3 human mammary carcinoma cell lines were maintained in complete McCoy's medium. Cells were incubated at 37° C. with 200 nM modified trastuzumab for 30 minutes and then washed twice with 10% fetal bovine serum (FBS) in Hanks balanced salt solution (HBSS). Tetrazine labeling was performed by incubating the cells for 30 minutes at 37° C. in 10% FBS/HBSS containing 50 μM of tetrazine-VT680. Cells were then washed twice with 10% FBS/HBSS and imaged with by fluorescence microscopy.

tubulin = assay: Tubulin polymerization assay in the absence of GTP (optical density at 350 nm); type: biochemical; conditions: tubulin monomer, versus DMSO control
From the text: To test the activity of the trans-cyclooctene taxol analog, we tested for the well known ability of Taxol® to polymerize tubulin in the absence of GTP (Shelanski et al., 1973, Proc Natl Acad Sci USA, 70, 765-8; Schiff and Horwitz, 1981, Biochemistry, 20, 3247-52). Optical density measurements at 350 nm (FIG. 6B) were used to determine the degree of tubulin polymerization after exposure of tubulin monomer to Taxol®, trans-cyclooctene taxol, and a DMSO control. […] Taxol trans-cyclooctene induced tubule bundles could be visualized by subsequent staining with tetrazine fluorophore probes such as tetrazine-BODIPY FL yielding brightly fluorescent tubule structures that could be imaged by fluorescent microscopy (FIG. 6c).

“3-(p-Benzylamino)-tetrazine-VT680 Conjugate” was tested, and the “staining of intracellular structures by confocal microscopy” value (“staining of intracellular structures” for short) (PtK2 rat kidney cells) was “showed intracellular structures reflecting microtubule networks”, the “staining of intracellular structures” value (PtK2 rat kidney cells; listed as sulfonated Vivo-Tag 680 tetrazine) was “very little staining and an absence of tubular structures” and the “colocalization of NIR (VT680) signal with AF555-labeled antibody” value (EGFR on A549 cells; A549 cells pretargeted with AF555-labeled trans-cyclooctene cetuximab, then tetrazine-VT680) was “excellent colocalization of the AF555 and VT680 signals with little background fluorescence”. The “NIR fluorescence in control experiments” value (EGFR on A549 cells; unlabeled cetuximab and tetrazine-VT680, or trans-cyclooctene-cetuximab and unlabeled VT680) was “no NIR fluorescence” and the “second order rate constant” value [1] was 6000 ± 200 M⁻¹ s⁻¹.
In the case of “5-(4-(1,2,4,5-Tetrazin-3-yl)benzylamino)-5-oxopentanoic Acid [Example 3]”, the “labeling of cells in rhodamine and NIR fluorescence channels” value ([2]; 200 nM norbornene- and rhodamine-modified trastuzumab 30 minutes, then 50 μM tetrazine-VT680 30 minutes 37° C. in 10% FBS/HBSS) is reported as “Significant labeling, which colocalizes” and the “NIR labeling with control antibody” value ([2]; control antibody containing rhodamine but not norbornene) is reported as “no NIR labeling”.
With `CC(=O)O[C@H]1C(=O)[C@@]2(C)[C@H]([C@H](OC(=O)c3ccccc3)[C@]3(O)C[C@H](OC(=O)[C@H](O)[C@@H](NC(=O)c4ccccc4)c4ccccc4)C(C)=C1C3(C)C)[C@]1(OC(C)=O)CO[C@@H]1C[C@@H]2O` [Taxol®, paclitaxel, reference compound] the “degree of tubulin polymerization (optical density at 350 nm)” value (tubulin) was “induced polymerization”.
For `Cc1cc(C)n2c1C=C1C=CC(CCC(=O)NCc3ccc(-c4nncnn4)cc3)=[N+]1[B-]2(F)F` [tetrazine-BODIPY FL], the “staining of intracellular structures” value (PtK2 rat kidney cells) was “tubular structures were clearly stained” and the “fluorescent background in control experiments” value (PtK2 rat kidney cells; tetrazine-BODIPY FL alone or with unmodified taxol) was “minimal fluorescent background”.
With `CC(=O)OC1C(=O)C2(C)C(OC(=O)CCNC(=O)OC3CCC=CCCC3)CC3OCC3(OC(C)=O)C2C(OC(=O)c2ccccc2)C2(O)CC(OC(=O)C(O)C(NC(=O)c3ccccc3)c3ccccc3)C(C)=C1C2(C)C` (stereo not drawn) [trans-cyclooctene taxol] the “staining of intracellular structures” value (PtK2 rat kidney cells) was “tubular structures were clearly stained” and the “degree of tubulin polymerization (optical density at 350 nm)” value (tubulin) was “induced polymerization”.
